Where a name gives a salt, the structure may show the parent alone.
target: T1, Adrenergic β2 (Homo sapiens, UniProt P07550); assay: Adrenergic β2 mediated cAMP production in H292 cells (AlphaScreen cAMP detection); format: cell-based; design: key to β2 Int Act: fraction of formoterol maximum activity (formoterol = 1); conditions: Intrinsic Activity as a fraction relative to the maximum activity determined for formoterol
T1 construct: Adherent H292 cells were removed from tissue culture flasks; endogenous in cells; host or cells: H292 cells
Description: Adrenergic β2 Mediated cAMP Production
H292 cells were grown in 225 cm2 flasks incubator at 37° C., 5% CO2 in RPMI medium containing, 10% (v/v) FBS (foetal bovine serum) and 2 mM L-glutamine.
Adherent H292 cells were removed from tissue culture flasks by treatment with Accutase™ cell detachment solution for 15 minutes. Flasks were incubated for 15 minutes in a humidified incubator at 37° C., 5% CO2. Detached cells were re-suspended in RPMI media (containing 10% (v/v) FBS and 2 mM L-glutamine) at 1×10^6 cells per mL. 10000 cells in 100 μL were added to each well of a tissue-culture-treated 96-well plate and the cells incubated overnight in a humidified incubator at 37° C., 5% CO2. The culture media was removed and cells were washed twice with 100 μL assay buffer and replaced with 50 μL assay buffer (HBSS solution containing 10 mM HEPES pH7.4 and 5 mM glucose). Cells were rested at room temperature for 20 minutes after which time 25 μL of rolipram (1.2 mM made up in assay buffer containing 2.4% (v/v) dimethylsulphoxide) was added. Cells were incubated with rolipram for 10 minutes after which time test compounds were added and the cells were incubated for 60 minutes at room temperature. The final rolipram concentration in the assay was 300 μM and final vehicle concentration was 1.6% (v/v) dimethylsulphoxide. The reaction was stopped by removing supernatants, washing once with 100 μL assay buffer and replacing with 50 μL lysis buffer. The cell monolayer was frozen at −80° C. for 30 minutes (or overnight).
AlphaScreen™ cAMP Detection
The concentration of cAMP (cyclic adenosine monophosphate) in the cell lysate was determined using AlphaScreen™ methodology. The frozen cell plate was thawed for 20 minutes on a plate shaker then 10 μL of the cell lysate was transferred to a 96-well white plate. 40 μL of mixed AlphaScreen™ detection beads pre-incubated with biotinylated cAMP, was added to each well and the plate incubated at room temperature for 10 hours in the dark. The AlphaScreen™ signal was measured using an EnVision spectrophotometer (Perkin-Elmer Inc.) with the recommended manufacturer's settings. cAMP concentrations were determined by reference to a calibration curve determined in the same experiment using standard cAMP concentrations. Concentration response curves for agonists were constructed and data was fitted to a four parameter logistic equation to determine both the pEC50 and Intrinsic Activity. Intrinsic Activity was expressed as a fraction relative to the maximum activity determined for formoterol in each experiment.

T1 sequence (P07550 whole entry): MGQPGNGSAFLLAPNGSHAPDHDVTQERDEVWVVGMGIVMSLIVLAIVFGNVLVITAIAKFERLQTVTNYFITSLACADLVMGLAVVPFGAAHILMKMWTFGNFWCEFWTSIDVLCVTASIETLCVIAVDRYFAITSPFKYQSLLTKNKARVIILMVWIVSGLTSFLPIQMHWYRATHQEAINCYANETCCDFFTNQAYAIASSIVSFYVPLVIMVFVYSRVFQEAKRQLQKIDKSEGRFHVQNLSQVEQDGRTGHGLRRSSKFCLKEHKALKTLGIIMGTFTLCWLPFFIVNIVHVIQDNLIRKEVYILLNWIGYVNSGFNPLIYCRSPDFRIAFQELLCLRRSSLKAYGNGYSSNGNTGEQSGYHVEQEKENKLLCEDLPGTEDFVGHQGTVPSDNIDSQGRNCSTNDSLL

| β2 Int Act | Structure (SMILES) |
| --- | --- |
| 0.89 | CCCC[C@@H](C)N(CCNCCc1ccc(O)c2c1OCC(=O)N2)C(=O)CCNCCc1cc(F)cc(Cl)c1 [Example 50, (R)-3-(3-Chloro-5-fluorophenethylamino)-N-(hexan-2-yl)-N-(2-(2-(5-hydroxy-3-oxo-3,4-dihydro-2H-benzo[b][1,4]oxazin-8-yl)ethylamino)ethyl)propanamide bis(trifluoroacetate)] |
| 0.94 | CCCC[C@@H](C)N(CCNCCc1ccc(O)c2c1OCC(=O)N2)C(=O)CCNCCc1cc(F)cc(F)c1 [Example 51, (R)-3-(3,5-Difluorophenethylamino)-N-(hexan-2-yl)-N-(2-(2-(5-hydroxy-3-oxo-3,4-dihydro-2H-benzo[b][1,4]oxazin-8-yl)ethylamino)ethyl)propanamide bis(trifluoroacetate)] |
| 0.95 | CCCC[C@@H](C)N(CCNCCc1ccc(O)c2c1OCC(=O)N2)C(=O)CCNCCc1ccc(F)c(F)c1 [Example 52, (R)-3-(3,4-Difluorophenethylamino)-N-(hexan-2-yl)-N-(2-(2-(5-hydroxy-3-oxo-3,4-dihydro-2H-benzo[b][1,4]oxazin-8-yl)ethylamino)ethyl)propanamide bis(trifluoroacetate)] |
| 0.99 | CCCC[C@@H](C)N(CCNCCc1ccc(O)c2c1OCC(=O)N2)C(=O)CCNCCc1cccc(F)c1F [Example 53, (R)-3-(2,3-Difluorophenethylamino)-N-(hexan-2-yl)-N-(2-(2-(5-hydroxy-3-oxo-3,4-dihydro-2H-benzo[b][1,4]oxazin-8-yl)ethylamino)ethyl)propanamide bis(trifluoroacetate)] |
| 0.96 | CCCC[C@@H](C)N(CCNCCc1ccc(O)c2c1OCC(=O)N2)C(=O)CCNCCc1cc(F)ccc1F [Example 54, (R)-3-(2,5-Difluorophenethylamino)-N-(hexan-2-yl)-N-(2-(2-(5-hydroxy-3-oxo-3,4-dihydro-2H-benzo[b][1,4]oxazin-8-yl)ethylamino)ethyl)propanamide bis(trifluoroacetate)] |
| 0.92 | CCCC[C@@H](C)N(CCNCCc1ccc(O)c2c1OCC(=O)N2)C(=O)CCNCCc1ccc(Cl)c(Cl)c1 [Example 55, (R)-3-(3,4-Dichlorophenethylamino)-N-(hexan-2-yl)-N-(2-(2-(5-hydroxy-3-oxo-3,4-dihydro-2H-benzo[b][1,4]oxazin-8-yl)ethylamino)ethyl)propanamide bis(trifluoroacetate)] |
| 0.91 | CCCC[C@@H](C)N(CCNCCc1ccc(O)c2c1OCC(=O)N2)C(=O)CCNCCc1cc(C)ccc1F [Example 56, (R)-3-(2-Fluoro-5-methylphenethylamino)-N-(hexan-2-yl)-N-(2-(2-(5-hydroxy-3-oxo-3,4-dihydro-2H-benzo[b][1,4]oxazin-8-yl)ethylamino)ethyl)propanamide bis(trifluoroacetate)] |
| 0.91 | CC[C@@H](C)N(CCNCCc1ccc(O)c2c1OCC(=O)N2)C(=O)CCNCCc1ccc(Cl)c(Cl)c1 [Example 58, (R)—N-sec-Butyl-3-(3,4-dichlorophenethylamino)-N-(2-(2-(5-hydroxy-3-oxo-3,4-dihydro-2H-benzo[b][1,4]oxazin-8-yl)ethylamino)ethyl)propanamide dihydrochloride] |
| 0.87 | CC(C)[C@@H](C)N(CCNCCc1ccc(O)c2c1OCC(=O)N2)C(=O)CCNCCc1ccc(Cl)c(Cl)c1 [Example 59, (R)-3-(3,4-Dichlorophenethylamino)-N-(2-(2-(5-hydroxy-3-oxo-3,4-dihydro-2H-benzo[b][1,4]oxazin-8-yl)ethylamino)ethyl)-N-(3-methylbutan-2-yl)propanamide dihydrochloride] |
| 0.84 | C[C@H](C1CCCCC1)N(CCNCCc1ccc(O)c2c1OCC(=O)N2)C(=O)CCNCCc1ccccc1 [Example 61, (R)—N-(1-Cyclohexylethyl)-N-(2-(2-(5-hydroxy-3-oxo-3,4-dihydro-2H-benzo[b][1,4]oxazin-8-yl)ethylamino)ethyl)-3-(phenethylamino)propanamide bis(trifluoroacetate)] |
| 0.86 | Cc1cc(CCNCCC(=O)N(CCNCCc2ccc(O)c3c2OCC(=O)N3)C2CCCCCC2)ccc1F [Example 62, N-Cycloheptyl-3-(4-fluoro-3-methylphenethylamino)-N-(2-(2-(5-hydroxy-3-oxo-3,4-dihydro-2H-benzo[b][1,4]oxazin-8-yl)ethylamino)ethyl)propanamide bis(trifluoroacetate)] |
| 0.79 | O=C1COc2c(CCNCCN(C(=O)CCNCCc3ccc(Cl)cc3)C3CCCCCC3)ccc(O)c2N1 [Example 63, 3-(4-Chlorophenethylamino)-N-cycloheptyl-N-(2-(2-(5-hydroxy-3-oxo-3,4-dihydro-2H-benzo[b][1,4]oxazin-8-yl)ethylamino)ethyl)propanamide bis(trifluoroacetate)] |
| 0.88 | O=C1COc2c(CCNCCN(C(=O)CCNCCc3cc(F)ccc3F)C3CCCCCC3)ccc(O)c2N1 [Example 64, N-Cycloheptyl-3-(2,5-difluorophenethylamino)-N-(2-(2-(5-hydroxy-3-oxo-3,4-dihydro-2H-benzo[b][1,4]oxazin-8-yl)ethylamino)ethyl)propanamide bis(trifluoroacetate)] |
| 0.93 | O=C1COc2c(CCNCCN(C(=O)CCNCCc3cc(F)cc(F)c3)C3CCCCCC3)ccc(O)c2N1 [Example 65, N-Cycloheptyl-3-(3,5-difluorophenethylamino)-N-(2-(2-(5-hydroxy-3-oxo-3,4-dihydro-2H-benzo[b][1,4]oxazin-8-yl)ethylamino)ethyl)propanamide bis(trifluoroacetate)] |
| 0.99 | O=C1COc2c(CCNCCN(C(=O)CCNCCc3cc(F)cc(Cl)c3)C3CCCCCC3)ccc(O)c2N1 [Example 66, 3-(3-Chloro-5-fluorophenethylamino)-N-cycloheptyl-N-(2-(2-(5-hydroxy-3-oxo-3,4-dihydro-2H-benzo[b][1,4]oxazin-8-yl)ethylamino)ethyl)propanamide bis(trifluoroacetate)] |
| 0.87 | O=C1COc2c(CCNCCN(C(=O)CCNCCc3ccc(F)c(F)c3)C3CCCCCC3)ccc(O)c2N1 [Example 67, N-Cycloheptyl-3-(3,4-difluorophenethylamino)-N-(2-(2-(5-hydroxy-3-oxo-3,4-dihydro-2H-benzo[b][1,4]oxazin-8-yl)ethylamino)ethyl)propanamide bis(trifluoroacetate)] |
| 0.93 | O=C1COc2c(CCNCCN(C(=O)CCNCCc3cccc(Cl)c3)C3CCCCCC3)ccc(O)c2N1 [Example 68, 3-(3-Chlorophenethylamino)-N-cycloheptyl-N-(2-(2-(5-hydroxy-3-oxo-3,4-dihydro-2H-benzo[b][1,4]oxazin-8-yl)ethylamino)ethyl)propanamide bis(trifluoroacetate)] |
| 0.88 | O=C1COc2c(CCNCCN(C(=O)CCNCCc3cccc(F)c3)C3CCCCCC3)ccc(O)c2N1 [Example 69, N-Cycloheptyl-3-(3-fluorophenethylamino)-N-(2-(2-(5-hydroxy-3-oxo-3,4-dihydro-2H-benzo[b][1,4]oxazin-8-yl)ethylamino)ethyl)propanamide bis(trifluoroacetate)] |
| 0.97 | O=C1COc2c(CCNCCN(C(=O)CCOCCc3ccccc3)C3CCCCC3)ccc(O)c2N1 [Example 70, N-Cyclohexyl-N-(2-(2-(5-hydroxy-3-oxo-3,4-dihydro-2H-benzo[b][1,4]oxazin-8-yl)ethylamino)ethyl)-3-phenethoxypropanamide trifluoroacetate] |
| 0.85 | Cl.O=C(CCOCCc1ccc(F)cc1)N(CCNCCc1ccc(O)c2[nH]c(=O)ccc12)C1CCCCC1 [Example 71, N-Cyclohexyl-3-(4-fluorophenethoxy)-N-(2-(2-(8-hydroxy-2-oxo-1,2-dihydroquinolin-5-yl)ethylamino)ethyl)propanamide hydrochloride] |
| 0.92 | Cl.O=C(CCOCCc1cccc(F)c1)N(CCNCCc1ccc(O)c2[nH]c(=O)ccc12)C1CCCCC1 [Example 72, N-Cyclohexyl-3-(3-fluorophenethoxy)-N-(2-(2-(8-hydroxy-2-oxo-1,2-dihydroquinolin-5-yl)ethylamino)ethyl)propanamide hydrochloride] |

| Structure (SMILES) | β2 Int Act |
| --- | --- |
| CCCC[C@@H](C)N(CCNCCc1ccc(O)c2c1OCC(=O)N2)C(=O)CCNCCc1cc(F)ccc1C [Example 57, (R)-3-(5-Fluoro-2-methylphenethylamino)-N-(hexan-2-yl)-N-(2-(2-(5-hydroxy-3-oxo-3,4-dihydro-2H-benzo[b][1,4]oxazin-8-yl)ethylamino)ethyl)propanamide bis(trifluoroacetate)] | 0.91 |

Reference: US20120142646A1, “Novel Compounds 621” (priority 2006, published 2012)
